Patent publication US20080318943A1, “Compounds and Uses Thereof - 848” (ASTRAZENECA AB, priority 2007, published 2008)

Experiments:
[1] = target: T1, GABAA2 receptors (α2, β3, γ2 receptor subunits transfected into Sf9 cells) (Homo sapiens, UniProt P18507+P47869); assay: GABAA2 Binding Method ([3H]-Flunitrazepam displacement); settings: [3H]-Flunitrazepam ~2 nM, α2β3γ2 Sf9 membranes, 1 hr at 4° C.
T1 construct: host or cells: Sf9 cells (membranes)
In short: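 Membranes from Sf9 cells expressing α2β3γ2 GABAA receptors incubated with ~2 nM (final) [3H]-flunitrazepam and test compound 1 h at 4 °C, then filtered on GF/B plates with cold-buffer washes. Flumazenil-defined controls; percent of control, IC50 and Ki calculated.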

GABAA receptor α2β3γ2 = target: T2, GABAA receptor α2β3γ2 (Homo sapiens, UniProt P18507+P47869); assay: Two-electrode voltage-clamp potentiation of GABA EC10 current in Xenopus oocytes, GABAA2; assay type: cell-based; settings: percentage potentiation of GABA EC10 current divided by that of diazepam
T2 construct: expressed in transfected cells; host or cells: Xenopus laevis oocytes injected with cRNA
T2 sequence (P47869 29-451): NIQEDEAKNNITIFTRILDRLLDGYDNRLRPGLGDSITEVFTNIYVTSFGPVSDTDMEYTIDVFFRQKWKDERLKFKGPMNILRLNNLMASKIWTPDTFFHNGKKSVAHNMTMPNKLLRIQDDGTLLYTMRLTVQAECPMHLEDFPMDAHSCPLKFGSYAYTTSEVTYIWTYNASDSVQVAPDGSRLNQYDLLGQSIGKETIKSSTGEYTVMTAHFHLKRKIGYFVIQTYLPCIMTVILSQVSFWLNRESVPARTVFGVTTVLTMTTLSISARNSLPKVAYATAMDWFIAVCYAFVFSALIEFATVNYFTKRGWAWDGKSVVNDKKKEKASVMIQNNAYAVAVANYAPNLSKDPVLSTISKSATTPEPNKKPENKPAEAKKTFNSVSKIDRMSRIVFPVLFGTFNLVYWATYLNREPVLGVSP
T2 sequence (P28472 26-473 partner): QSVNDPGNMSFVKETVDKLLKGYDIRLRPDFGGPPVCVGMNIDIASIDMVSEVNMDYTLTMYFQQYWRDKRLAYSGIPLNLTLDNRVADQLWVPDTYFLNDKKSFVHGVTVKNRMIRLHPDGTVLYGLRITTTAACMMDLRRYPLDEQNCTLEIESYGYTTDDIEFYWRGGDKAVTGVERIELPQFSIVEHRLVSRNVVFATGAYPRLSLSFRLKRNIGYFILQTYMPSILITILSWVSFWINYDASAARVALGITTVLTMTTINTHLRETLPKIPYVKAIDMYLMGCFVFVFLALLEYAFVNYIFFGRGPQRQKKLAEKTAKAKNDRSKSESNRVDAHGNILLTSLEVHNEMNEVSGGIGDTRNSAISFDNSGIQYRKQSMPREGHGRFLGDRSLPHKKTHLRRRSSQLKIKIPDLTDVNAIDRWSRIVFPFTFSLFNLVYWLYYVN
T2 sequence (P18507 40-475): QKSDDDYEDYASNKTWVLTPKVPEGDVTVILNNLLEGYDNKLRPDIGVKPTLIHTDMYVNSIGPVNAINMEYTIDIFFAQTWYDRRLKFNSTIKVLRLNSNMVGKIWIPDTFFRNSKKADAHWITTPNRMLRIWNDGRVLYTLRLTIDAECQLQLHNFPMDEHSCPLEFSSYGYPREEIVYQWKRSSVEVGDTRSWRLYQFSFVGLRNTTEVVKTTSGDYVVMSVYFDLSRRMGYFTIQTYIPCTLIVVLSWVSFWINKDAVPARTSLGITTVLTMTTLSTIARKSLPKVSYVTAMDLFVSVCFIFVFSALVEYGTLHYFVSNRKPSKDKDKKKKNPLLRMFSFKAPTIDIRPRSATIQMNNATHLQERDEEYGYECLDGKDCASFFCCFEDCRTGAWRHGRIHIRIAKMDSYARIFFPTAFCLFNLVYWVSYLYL
Method: GABAA receptors were heterologously expressed in Xenopus oocytes by injecting cRNA corresponding to human α1, α2, α3, α5, β2, P3 and γ2 subunits of the GABAA receptor genes. The specific subunit combinations (subtypes) were as follows: α1β2γ2, α2β3γ2, α3β3γ2, and α5β3γ2. The EC10 of GABA is approximated for each cell. Stability of GABA-mediated (EC10) current is established. Modulatory effect of test compound is determined and compared across subtypes. […] Thus, the assay can characterize modulatory effects and determine subtype selectivity of test compounds on major subtypes of GABAA receptors.
Xenopus laevis frogs (Xenopus I, Kalamazoo, Mich.) were anesthetized using 0.15% tricaine. Surgically removed ovarian lobes were teased out in OR2 solution (82 NaCl, 2.5 KCl, 5 HEPES, 1.5 NaH2PO4, 1 MgCl2, 0.1 EDTA, in mM, pH 7.4). The oocytes were defolliculated by incubation in 25 mL OR2 containing 0.2% collagenase 1A (SIGMA) two times for about 60 minutes on a platform shaker and stored in Leibovitz's L-15 medium. Oocytes were injected the following day in 0.5× Leibovitz's L-15 medium containing […] gentamycin, 10 units/ml penicillin, and […] streptomycin.
Capped cRNAs from the linearized vectors containing human α1, β2 and γ2 subunits of the GABAA receptor genes were mixed in ratio of […]. Oocytes were injected with 25-50 nL of mixed RNA with an appx molar ratio for α1, β2, and γ2 as 1:1:10. Oocyte recordings were done 2-10 days after injection. The same methods apply to subtypes derived from α2β3γ2, α3β3γ2, and α5β3γ2, except for 1:1:1 ratio was used for α, β, and γ subunits.
All measurements were done in a medium containing ND-96 (96 NaCl, 2 KCl, 1.8 CaCl2.2H2O, 1 MgCl2.6H2O, 5 HEPES, in mM, pH 7.5). Two-electrode voltage-clamp recording was carried out using OpusXpress amplifier (Axon Instruments, Foster City, Calif.), which allows simultaneous recording from 8 oocytes. Oocytes were impaled with two electrodes of 1-2 MΩ tip resistance when filled with 3M KCl. Recordings were begun when membrane potential became stable at potentials negative to −50-−60 mV. Membrane potential was held at −60 mV. […] The concentration of GABA corresponded to the EC10 value calculated for each oocyte. The modulator pulses started 30 s before the GABA pulse so as to allow preincubation with the modulator. A set of 3 pulses with just GABA without modulator was given prior to the modulator-containing pulses to define the baseline GABA response. Two oocytes per each experiment were dedicated to observe the effect of diazepam on GABA response to ensure the presence of γ2 subunit in the GABAA pentameric complex, which imparts diazepam sensitivity to the complex.
Current amplitude (i) was measured from baseline to peak using Clampfit (Axon Inst., Foster City, Calif.). Potentiation was calculated as percent change from the baseline GABA current flux 100×(imod/icontrol)−1) where imod=current mediated by modulator+GABA and icontrol=current mediated by GABA alone. […] Similarly, a value of −50% potentiation means the presence of modulator caused a 50% decrease in the control current. Various other data shown here were fitted and plotted using GraphPad Prism (GraphPad Software, Inc. San Diego, Calif.). The percentage potentiation was converted to relative potentiation by dividing it with percentage potentiation value obtained from the same assay with diazepam as a control.

GABAA receptor α1β2γ2 = target: T3, GABAA receptor α1β2γ2 (Homo sapiens, UniProt P14867+P18507); assay: Two-electrode voltage-clamp potentiation of GABA EC10 current in Xenopus oocytes, GABAA1; assay type: cell-based; settings: percentage potentiation of GABA EC10 current divided by that of diazepam
T3 construct: expressed in transfected cells; host or cells: Xenopus laevis oocytes injected with cRNA
T3 sequence (P14867 28-456): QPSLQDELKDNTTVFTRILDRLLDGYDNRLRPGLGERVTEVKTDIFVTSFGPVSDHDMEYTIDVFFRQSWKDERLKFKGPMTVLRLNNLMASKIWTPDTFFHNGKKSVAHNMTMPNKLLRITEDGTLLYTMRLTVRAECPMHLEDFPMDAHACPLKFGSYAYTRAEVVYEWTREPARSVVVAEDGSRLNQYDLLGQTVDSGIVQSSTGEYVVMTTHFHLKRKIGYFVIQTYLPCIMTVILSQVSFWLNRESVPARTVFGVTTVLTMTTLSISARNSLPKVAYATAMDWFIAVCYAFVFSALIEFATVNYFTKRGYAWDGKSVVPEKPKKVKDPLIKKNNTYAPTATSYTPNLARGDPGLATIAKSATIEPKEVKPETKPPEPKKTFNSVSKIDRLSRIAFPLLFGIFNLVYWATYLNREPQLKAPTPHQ
T3 sequence (P47870 25-512 partner limits assumed): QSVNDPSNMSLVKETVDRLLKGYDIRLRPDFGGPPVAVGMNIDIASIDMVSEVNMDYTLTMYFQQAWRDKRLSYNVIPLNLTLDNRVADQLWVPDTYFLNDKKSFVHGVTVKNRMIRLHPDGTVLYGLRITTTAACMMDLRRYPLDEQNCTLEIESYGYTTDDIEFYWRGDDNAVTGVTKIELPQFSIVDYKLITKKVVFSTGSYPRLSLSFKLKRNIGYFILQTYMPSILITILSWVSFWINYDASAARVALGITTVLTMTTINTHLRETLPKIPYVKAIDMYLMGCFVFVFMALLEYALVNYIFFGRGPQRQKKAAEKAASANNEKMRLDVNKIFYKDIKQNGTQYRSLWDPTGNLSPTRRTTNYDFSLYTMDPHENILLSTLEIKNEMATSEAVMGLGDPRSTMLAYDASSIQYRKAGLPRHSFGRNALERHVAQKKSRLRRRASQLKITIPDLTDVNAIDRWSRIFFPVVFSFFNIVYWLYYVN
T3 sequence (P18507 40-475): as the sequence (P18507 40-475) above
In short: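 Human GABAA receptors expressed in Xenopus oocytes by cRNA injection (α:β:γ molar ratio ~1:1:10 for α1β2γ2, 1:1:1 for α2β3γ2), recorded 2-10 days later by two-electrode voltage clamp at −60 mV in ND-96, pH 7.5. Modulator preapplied 30 s before GABA at per-oocyte EC10. Peak-current percent potentiation over GABA alone, normalised to diazepam.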

T1 sequence (P47869 29-451): as the sequence (P47869 29-451) above
T1 sequence (P28472 26-473 partner): as the sequence (P28472 26-473 partner) above
T1 sequence (P18507 40-475): as the sequence (P18507 40-475) above

SMILES | Ki [1] | Relative Potentiation for GABAA2 (GABAA receptor α2β3γ2) | Relative Potentiation for GABAA1 (GABAA receptor α1β2γ2)
CCCCN1Cc2nc3c(-c4ccc(OC)nc4OC)cccc3c(N)c2C1=O [Example 43, 9-Amino-2-butyl-5-(2,6-dimethoxypyridin-3-yl)-2,3-dihydropyrrolo[3,4-b]quinolin-1-one] | 0.045 µM | 0.37 | –
CCN1Cc2nc3c(-c4cc(C)cc(C)c4)cccc3c(N)c2C1=O [9-amino-5-(3,5-dimethylphenyl)-2-ethyl-2,3-dihydro-1H-pyrrolo[3,4-b]quinolin-1-one] | 0.0142 µM | – | 0.34
COc1ccc(CN2Cc3nc4c(-c5cc(F)ccc5C)cccc4c(N)c3C2=O)cc1 [9-amino-5-(5-fluoro-2-methylphenyl)-2-(4-methoxybenzyl)-2,3-dihydro-1H-pyrrolo[3,4-b]quinolin-1-one] | 0.0258 µM | – | 0.22
CCCN1Cc2nc3c(-c4cccc(C#N)c4)cccc3c(N)c2C1=O [3-(9-amino-1-oxo-2-propyl-2,3-dihydro-1H-pyrrolo[3,4-b]quinolin-5-yl)benzonitrile] | 0.0212 µM | – | 0.54
COc1ccc(CN2Cc3nc4c(-c5ccc(F)cc5OC)cccc4c(N)c3C2=O)cc1 [9-amino-5-(4-fluoro-2-methoxyphenyl)-2-(4-methoxybenzyl)-2,3-dihydro-1H-pyrrolo[3,4-b]quinolin-1-one] | 0.0312 µM | – | 0.22
CCCN1Cc2nc3c(-c4ccc5ncccc5c4)cccc3c(N)c2C1=O [9-amino-2-propyl-5-(quinolin-6-yl)-2,3-dihydro-1H-pyrrolo[3,4-b]quinolin-1-one] | 0.0195 µM | – | 0.29
CCCN1Cc2nc3c(-c4cncc(OC)c4)cccc3c(N)c2C1=O [9-amino-5-(5-methoxypyridin-3-yl)-2-propyl-2,3-dihydro-1H-pyrrolo[3,4-b]quinolin-1-one] | 0.063 µM | – | 0.23
COc1ccncc1-c1cccc2c(N)c3c(nc12)CN(C1CC1)C3=O [9-amino-2-cyclopropyl-5-(4-methoxypyridin-3-yl)-2,3-dihydro-1H-pyrrolo[3,4-b]quinolin-1-one] | 0.0081 µM | – | 0.21
COc1ccc(C)cc1-c1cccc2c(N)c3c(nc12)CN(C1CC1)C3=O [9-amino-2-cyclopropyl-5-(2-methoxy-5-methylphenyl)-2,3-dihydro-1H-pyrrolo[3,4-b]quinolin-1-one] | 0.00476 µM | – | 0.28
CCCN1Cc2nc3c(-c4ccc5[nH]ccc5c4)cccc3c(N)c2C1=O [9-amino-5-(1H-indol-5-yl)-2-propyl-2,3-dihydro-1H-pyrrolo[3,4-b]quinolin-1-one] | 0.0268 µM | – | 0.55
COc1ccc(CN2Cc3nc4c(-c5cc(F)c(OC)cc5F)cccc4c(N)c3C2=O)cc1 [9-amino-5-(2,5-difluoro-4-methoxyphenyl)-2-(4-methoxybenzyl)-2,3-dihydro-1H-pyrrolo[3,4-b]quinolin-1-one] | 0.0484 µM | – | 0.29
CCCN1Cc2nc3c(-c4ccc(OC)nc4C)cccc3c(N)c2C1=O [9-amino-5-(6-methoxy-2-methylpyridin-3-yl)-2-propyl-2,3-dihydro-1H-pyrrolo[3,4-b]quinolin-1-one] | 0.0164 µM | – | 0.29
CCCN1Cc2nc3c(-c4cc(OC)c(OC)c(OC)c4)cccc3c(N)c2C1=O [9-amino-2-propyl-5-(3,4,5-trimethoxyphenyl)-2,3-dihydro-1H-pyrrolo[3,4-b]quinolin-1-one] | 0.0898 µM | – | 0.96
CCCN1Cc2nc3c(-c4cccc(N(C)C)c4)cccc3c(N)c2C1=O [9-amino-5-(3-(dimethylamino)phenyl)-2-propyl-2,3-dihydro-1H-pyrrolo[3,4-b]quinolin-1-one] | 0.0374 µM | – | 0.27
CCCN1Cc2nc3c(-c4cc(OC)cnc4Cl)cccc3c(N)c2C1=O [9-amino-5-(2-chloro-5-methoxypyridin-3-yl)-2-propyl-2,3-dihydro-1H-pyrrolo[3,4-b]quinolin-1-one] | 0.00972 µM | – | 0.45
CCCN1Cc2nc3c(-c4ccccc4C)cccc3c(N)c2C1=O [9-amino-2-propyl-5-(2-methylphenyl)-2,3-dihydro-1H-pyrrolo[3,4-b]quinolin-1-one] | 0.00553 µM | – | 0.35
CCCN1Cc2nc3c(-c4ccc(F)nc4F)cccc3c(N)c2C1=O [9-amino-5-(2,6-difluoropyridin-3-yl)-2-propyl-2,3-dihydro-1H-pyrrolo[3,4-b]quinolin-1-one] | 0.0753 µM | – | 0.21
COc1ccc(C)cc1-c1c(F)ccc2c(N)c3c(nc12)CN(C1CC1)C3=O [9-amino-2-cyclopropyl-6-fluoro-5-(2-methoxy-5-methylphenyl)-2,3-dihydro-1H-pyrrolo[3,4-b]quinolin-1-one] | 0.00765 µM | – | 0.23
CCCN1Cc2nc3c(-c4ccccc4Cl)cccc3c(N)c2C1=O [9-amino-5-(2-chlorophenyl)-2-propyl-2,3-dihydro-1H-pyrrolo[3,4-b]quinolin-1-one] | 0.00482 µM | – | 0.35
CCCCN1Cc2nc3c(-c4cccnc4OC)cccc3c(N)c2C1=O [9-amino-2-butyl-5-(2-methoxypyridin-3-yl)-2,3-dihydro-1H-pyrrolo[3,4-b]quinolin-1-one] | 0.0197 µM | – | 0.5
COc1ccc(CN2Cc3nc4c(-c5cccnc5OC)cccc4c(N)c3C2=O)cc1Cl [9-amino-2-(3-chloro-4-methoxybenzyl)-5-(2-methoxypyridin-3-yl)-2,3-dihydro-1H-pyrrolo[3,4-b]quinolin-1-one] | 0.00989 µM | – | 0.25
CCCN1Cc2nc3c(-c4ccc(OC)c(OC)c4)cccc3c(N)c2C1=O [9-amino-5-(3,4-dimethoxyphenyl)-2-propyl-2,3-dihydro-1H-pyrrolo[3,4-b]quinolin-1-one] | 0.0123 µM | – | 1.1
CCCN1Cc2nc3c(-c4ccncc4)cccc3c(N)c2C1=O [9-amino-2-propyl-5-(pyridin-4-yl)-2,3-dihydro-1H-pyrrolo[3,4-b]quinolin-1-one] | 0.0246 µM | – | 0.43
COc1ccc(CN2Cc3nc4c(-c5cc(F)ccc5OC)cccc4c(N)c3C2=O)cc1 [9-amino-5-(5-fluoro-2-methoxyphenyl)-2-(4-methoxybenzyl)-2,3-dihydro-1H-pyrrolo[3,4-b]quinolin-1-one] | 0.0463 µM | – | 0.39
CCCN1Cc2nc3c(-c4ccccc4)cccc3c(N)c2C1=O [9-amino-5-phenyl-2-propyl-2,3-dihydro-1H-pyrrolo[3,4-b]quinolin-1-one] | 0.0438 µM | – | 0.51
CCCN1Cc2nc3c(-c4cccc(OC)c4OC)cccc3c(N)c2C1=O [9-amino-5-(2,3-dimethoxyphenyl)-2-propyl-2,3-dihydro-1H-pyrrolo[3,4-b]quinolin-1-one] | 0.0245 µM | – | 0.3
